Reference: the NIST ThermoML archive (doi:10.1021/acs.jced.5b00330)
± gives the expanded uncertainty stated by the source.

Tests used:
[1] = Crystal
[2] = Solid-liquid equilibrium temperature; settings: Crystal, High pressure microscope

Normal melting temperature ([1]; DTA) [°C]	Normal melting temperature ([1]; High pressure microscope) [°C]	Solid-liquid equilibrium temperature ([2]; 100 kPa) [K]	Solid-liquid equilibrium temperature ([2]; 20000 kPa) [K]	Solid-liquid equilibrium temperature ([2]; 40000 kPa) [K]	Solid-liquid equilibrium temperature ([2]; 60000 kPa) [K]	Solid-liquid equilibrium temperature ([2]; 80000 kPa) [K]	Normal melting temperature ([1]; High Pressure microscope) [°C]	Structure (SMILES)
49.7 ± 1.3	49.1 ± 1.4	322.2 ± 0.4	327.3 ± 0.5	332.4 ± 0.5	337.6 ± 0.5	342.7 ± 0.5	–	CCCCCCCCCCCCCCCCO [1-hexadecanol]
58.2 ± 1.3	–	330.9 ± 0.4	335.8 ± 0.5	340.9 ± 0.5	345.9 ± 0.5	350.6 ± 0.5	57.8 ± 1.4	CCCCCCCCCCCCCCCCCCO [1-octadecanol]
37.8 ± 1.3	37.5 ± 1.4	310.6 ± 0.4	314.2 ± 0.5	319 ± 0.5	323.8 ± 0.5	327.8 ± 0.5	–	CCCCCCCCCCCCCCO [1-tetradecanol]
24.7 ± 1.3	–	296.9 ± 0.4	300.5 ± 0.5	304.6 ± 0.5	308.4 ± 0.5	311.7 ± 0.5	23.8 ± 1.4	CCCCCCCCCCCCO [dodecan-1-ol]
